# In US9814758B2, “Inhibitors of apoptosis and uses thereof” (CENTRE NATIONAL DE LA RECHERCHE SCIENTIFIQUE-CNRS, priority 2010, dated 2017):
# Non-standard residues stand in square brackets, D forms with d. No end group written: not given here. Ahx = NCCCCCC(=O)O; βAla = NCCC(=O)O
# Experiments:
# [1] = system: primary cardiomyocytes; assay: STS-induced DNA fragmentation (Cell Death detection ELISA PLUS) in primary cardiomyocytes; format: cell-based, mouse; details: for anti-apoptotic effect compared with Tat-DAXXp: primary cardiomyocytes, against STS; for decrease in apoptosis: cardiomyocytes, STS + 1 μM peptide, FIG. 9
# Protocol: (§1) FIG. 5: In vitro evaluation of the anti-apoptotic activity of CPPs and CPP-conjugates. Workflow and quantitation of DNA fragmentation in (A) C2C12 cells, (B) primary cardiomyocytes, (C) H9c2 cells and (D) NG108-15 cells. Data were normalized to 100% STS. Data shown are the means±SEM, with n≧5. Cells were seeded in 24-well plates and grown overnight. The next day, the cells were incubated with STS alone or with STS+1 μM peptide (in OPTI-MEM) (OPTI-MEM® is a modification of Eagle's Minimum Essential Media, buffered with HEPES and sodium bicarbonate, and supplemented with hypoxanthine, thymidine, sodium pyruvate, L-glutamine, trace elements, and growth factors) (STS concentration and incubation time for each cells are given in the figure). Thereafter, solutions were removed, replaced by complete medium and further incubated for 40 h. Following the regeneration phase, the cells were lyzed and DNA fragmentation was detected according to manufacturer's instructions (Cell Death detection ELISA^PLUS kit—Roche Diagnostics).
# FIG. 6: Anti-apoptotic activity of variants of the Tat-DAXXp sequence on primary cardiomyocytes. As described in the caption of FIG. 5, the different analogues of the DAXXp sequence (see Table 2) were assessed for anti-apoptotic properties against STS (Cell Death detection ELISA^PLUS kit—Roche Diagnostics) (A-B). None of the analogues were able to protect the primary cardiomyocytes—a fact which confirms that the 16mer DAXXp has the optimal length and sequence for highest cardioprotective effect.
# FIG. 7: Comparison of the murine/rat DAXXp with the human DAXXp sequence in terms of anti-apoptotic activity on C2C12 cells, primary cardiomyocytes, and H9c2. The murine DAXXp sequence conjugated to Tat (Tat-mDAXXp—SEQ ID NO: 61) which is identical to the rat DAXXp sequence (see FIG. 1B), was compared to the human construct (Tat-DAXXp) in terms of anti-apoptotic properties against STS (Cell Death detection ELISA^PLUS kit—Roche Diagnostics). The C2C12 cells and the primary cardiomyocytes used were from mice and the H9c2 cells from rat.
# FIG. 9: Comparison of FADDp constructs with Tat-DAXXp in terms of anti-apoptotic activity in primary cardiomyocytes and in H9c2 cells. Quantification of DNA normalized to 100% STS. Data shown are the means±SEM, with n≧5. Cells were seeded in 24-well plates and grown overnight. The next day, the cells were incubated with STS alone or with STS+1 μM peptide (in OPTI-MEM®) (OPTI-MEM® is a modification of Eagle's Minimum Essential Media, buffered with HEPES and sodium bicarbonate, and supplemented with hypoxanthine, thymidine, sodium pyruvate, L-glutamine, trace elements, and growth factors) (STS concentration is given in the figure and incubation time is given in FIG. 5). Thereafter, solutions were removed, replaced by complete medium and further incubated for 40 hours. Following the regeneration phase, the cells were lyzed and DNA fragmentation was detected according to manufacturer's instructions (Cell Death detection ELISA^PLUS kit—Roche Diagnostics).
# FIG. 10: Comparison of Tat-DAXXp and Tat-FADDp15 alone and in combination in primary cardiomyocytes (A) and in H9c2 cells (B).
# (§2) Thereafter, the capacity of these peptides to inhibit apoptosis induced by staurosporine was evaluated. Apoptosis was determined using the Cell Death detection ELISA^PLUS kit (Roche) measuring the DNA fragmentation.
# In most publications, anti-apoptotic peptides currently available in the art are administrated 3-4 hours prior to apoptosis induction, which is poorly relevant to a clinical application. For that reason, the protocol used in the present study included administration of the peptides together with the staurosporine. […] This was not observed with CPP alone or with the Tat-scrDAXXp or Tat-ncDAXXp negative controls. […] To better compare the results, the DNA fragmentation (described by the enrichment factor) is related to the staurosporine-treated cells (=100%).
# [2] = system: C2C12 cells; assay: STS-induced DNA fragmentation (Cell Death detection ELISA PLUS) in C2C12 cells; format: cell-based, mouse; details: C2C12; against STS
# Protocol: as §1, with “Thereafter, solutions were removed, replaced by complete medium and further incubated for 40 h.” left out, “Diagnostics). […]” for “Diagnostics).”
# as §2
# (§3) The anti-apoptotic effects of the peptides were also analyzed in murine NG118-15 (model for neuronal cells) (FIG. 5D), in murine C2C12 (model for muscle cells) (FIG. 5A) and in rat H9c2 (model for cardiac cells) (FIG. 5C). […]
# [3] = system: H9c2 cells; assay: STS-induced DNA fragmentation (Cell Death detection ELISA PLUS) in H9c2 cells; format: cell-based, rat; details: H9c2; against STS
# Protocol: as §1, with “Diagnostics). […]” for “Diagnostics).”
# as §2
# The anti-apoptotic effects of the peptides were also analyzed in murine NG118-15 (model for neuronal cells) (FIG. 5D), in murine C2C12 (model for muscle cells) (FIG. 5A) and in rat H9c2 (model for cardiac cells) (FIG. 5C). The highest reduction in DNA fragmentation were observed using Bpep-DAXXp in NG118-15 (66% reduction) using Tat-DAXXp in C2C12 (24% reduction) and Pip2b-DAXXp in H9c2 (31% reduction).
# [4] = biological target: T1, intracellular region of the Fas receptor (Homo sapiens, UniProt P25445); assay: Binding affinities (Kd) by surface plasmon resonance (Biacore); details: mean of three independent experiments, read-out: Kd ± SD
# T1 sequence (P25445 191-335 limits assumed): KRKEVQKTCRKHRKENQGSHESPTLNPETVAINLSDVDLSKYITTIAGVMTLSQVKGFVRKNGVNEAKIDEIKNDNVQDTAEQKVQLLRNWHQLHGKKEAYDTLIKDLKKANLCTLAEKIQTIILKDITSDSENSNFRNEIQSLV
# Source text: Additionally, the potential interaction of the fragments with the intracellular region of the Fas receptor was cross-validated by measuring the binding affinities (Kd) using the surface plasmon resonance (SPR) technique (Biacore Life Science, Sweden).
# [5] = system: NG108-15 cells; assay: STS-induced DNA fragmentation (Cell Death detection ELISA PLUS) in NG108-15 cells; format: cell-based; details: murine NG118-15 (model for neuronal cells); FIG. 5D
# Protocol: as §1, with “Thereafter, solutions were removed, replaced by complete medium and further incubated for 40 h.” left out
# as §2, §3
Substance,anti-apoptotic effect compared with Tat-DAXXp [1],anti-apoptotic effect compared with Tat-DAXXp [2],anti-apoptotic effect compared with Tat-DAXXp [3],decrease in apoptosis [1] [%],Kd [4] [mM],reduction in DNA fragmentation [5] [%]
GRKKRRQRRRPPQ-KRFRKEKKQLGSGLLG-NH2 (GRKKRRQRRRPPQKRFRKEKKQLGSGLLG-NH2) [Tat-mDAXXp],increase in anti-apoptotic effect,increase in anti-apoptotic effect,increase in anti-apoptotic effect,,,
GRKKRRQRRRPPQ-KRKLERVQS-NH2 (GRKKRRQRRRPPQKRKLERVQS-NH2) [Tat-FADDp],less effective than Tat-DAXXp,,less effective than Tat-DAXXp,35,,
GRKKRRQRRRPPQ-VGKRKLERVQSGLDL-NH2 (GRKKRRQRRRPPQVGKRKLERVQSGLDL-NH2) [Tat-FADDp15],increased anti-apoptotic effect,,equal,57,,
"KKGRKQSGESLGTPKK-NH2 [scrDAXXp, KKGRKQSGESLGTPKK -NH2]",,,,,≥ 6,
RXRRBRRXRRBRXB-KKSRKEKKQTGSGPLG-NH2 (R[Ahx]RR[βAla]RR[Ahx]RR[βAla]R[Ahx][βAla]KKSRKEKKQTGSGPLG-NH2; N-terminus assumed; SMILES CC(C)C[C@H](NC(=O)[C@@H]1CCCN1C(=O)CNC(=O)[C@H](CO)NC(=O)CNC(=O)[C@@H](NC(=O)[C@H](CCC(N)=O)NC(=O)[C@H](CCCCN)NC(=O)[C@H](CCCCN)NC(=O)[C@H](CCC(=O)O)NC(=O)[C@H](CCCCN)NC(=O)[C@H](CCCNC(=N)N)NC(=O)[C@H](CO)NC(=O)[C@H](CCCCN)NC(=O)[C@H](CCCCN)NC(=O)CCNC(=O)CCCCCNC(=O)[C@H](CCCNC(=N)N)NC(=O)CCNC(=O)[C@H](CCCNC(=N)N)NC(=O)[C@H](CCCNC(=N)N)NC(=O)CCCCCNC(=O)[C@H](CCCNC(=N)N)NC(=O)[C@H](CCCNC(=N)N)NC(=O)CCNC(=O)[C@H](CCCNC(=N)N)NC(=O)[C@H](CCCNC(=N)N)NC(=O)CCCCCNC(=O)[C@@H](N)CCCNC(=N)N)[C@@H](C)O)C(=O)NCC(N)=O) [Bpep-DAXXp],,,,,,66
